The text below walks through data of patent publication US20200093103A1, “BREEDING WATER FOR ANGUILLIFORMES AND METHOD FOR REARING ANGUILLIFORMES” (SHIN NIPPON BIOMEDICAL LABORATORIES, LTD., priority 2016, published 2020).

For experiment [1], the system named is Anguilla japonica leptocephali. The experiment can be described thus: Induction of Anguilla japonica metamorphosis by T4 treatment in 23° C. breeding water. In kind it is in vivo. On the set-up: key: Y: Metamorp completed (seed production completed).; Nd: Dead. The text has this: (§1) Stage 1: Starting phase of metamorphosis. The rostral end is rounded, and intestinal degeneration starts.
(§2) Stage 2: Peak phase of metamorphosis. Intestinal degeneration becomes pronounced. In the second half, the anus reaches to near the last vertical blood vessel (VBV last).
(§3) Stage 3: Late phase of metamorphosis. The preanal length (PAL) becomes equal to or shorter than the last vertical blood vessel length (VBV last Length) (PAL VBV last Length). The body height is apparently low.
(§4) Stage 4: Pre-glass eel stage. Almost the eel form, but the body height still remains. Melanophores on the body surface or endogenous melanophores are not yet seen.
(§5) Elver stage: Juvenile stage. Food intake can be identified.
(§6) A thyroid hormone (e.g., thyroxine (T4)) is adjusted to 50 to 100 mM in a 1- to 2-mL volume messflask. As a solvent, known solvents (water, alcohol) can be used. Ethanol is preferably used as the solvent.
(§7) For example, using ethanol as a solvent, T4 adjusted to 50 mM is diluted 500-fold, 5,000-fold, and 50,000-fold, respectively, and adjusted to […], 1 μM, and 100 nM. A feed can be prepared in this manner.
(§8) Artificial seawater is added to a breeding vessel, and 1/1000 of the […] T4 is added to prepare […] T4 breeding water.
(§9) Half of the breeding water is replaced every two days with breeding water of the same concentration. In the case where the concentration is changed, for example, in the case of changing from 10 nM to 2 nM, 80% to the breeding water is removed, and unadjusted artificial seawater is newly added to make 1 L.
(§10) Leptocephali visually considered to have reached a total length of 40 mm (or may be 30 mm to 50 mm, may be 35 mm to 45 mm, or may also be 35 mm or more, 40 mm or more, or 45 mm or more) are selected, anesthetized with 2-phenoxyethanol, and then photographed, and the total length of each larva is measured using an image analyzing device.
(§11) The larvae are placed in 10 nM T4 breeding water and then placed in an incubator set at 23° C., and breeding is started. In first one week, observation is performed every two days, and half of the 10 nM T4 breeding water is replaced each time. The average amount of thyroid hormone in the breeding water in stage 1 is 1 nM to 100 nM, for example, and may also be 3 nM to 30 nM, or 5 nM to 20 nM.
(§12) For larvae visually judged to have reached the second half of stage 2, the concentration of the breeding water is changed. The breeding water is diluted 5-fold or 10-fold and adjusted to 2 nM or 1 nM T4, and breeding is continued. The average amount of thyroid hormone in the breeding water in stage 2 may be, as compared with the breeding water of stage 1, diluted 2-fold to 20-fold, diluted 3 to 15-fold, or diluted 5 to 10-fold as described above. The average amount of thyroid hormone in the breeding water in stage 2 is 0.1 nM to 20 nM, for example, and may also be 0.5 nM to 10 nM, 1 nM to 5 nM, or 1 nM to 2 nM.
For larvae visually judged to have reached stage 3, the breeding water is quickly changed 0.2 nM T4 breeding water, which is a 5-fold dilution of 1 nM T4 breeding water, and further changed to 0.1 nM T4 breeding water on the following day. […] Also, in larvae whose anus position has not reached the last vertical hemal spine, when they are judged to be on the brink of stage 3, the concentration is changed as above. […]

In experiment [2] the test system is Anguilla japonica leptocephali. The description is as above. It counts as in vivo. On the set-up: key: Y: Metamorphosis completed (seed production completed).; Nd: Dead.; Nf: Food intake unidentified.; Ng: Not metamorphosed into glass eels.
Description: as §1, §2, §3, §4, §5, §6, §7, §8, §9, §10, §11, §12
For larvae visually judged to have reached stage 3, the breeding water is quickly changed 0.2 nM T4 breeding water, which is a 5-fold dilution of 1 nM T4 breeding water, and further changed to 0.1 nM T4 breeding water on the following day. […] Also, in larvae whose anus position has not reached the last vertical hemal spine, when they are judged to be on the brink of stage 3, the concentration is changed as above. The average amount of thyroid hormone in the breeding water in stage 3 may be, as compared with the breeding water of stage 2, diluted 2-fold to 50-fold, diluted 3 to 15-fold, diluted 4 to 6-fold, or diluted 5-fold as described above. The average amount of thyroid hormone in the breeding water in stage 3 is 0.01 nM to 2 nM, for example, and may also be 0.05 nM to 1 nM, 0.1 nM to 0.5 nM, or 0.1 nM to 0.2 nM. […] That is, the concentration may be changed such that the thyroid hormone becomes undetectable in the breeding water in the course of stage 3.
In stage 3, breeding is continuously performed in the 0.1 nM T4 breeding water. […]

Regarding `N[C@@H](Cc1cc(I)c(Oc2cc(I)c(O)c(I)c2)c(I)c1)C(=O)O` [T4, thyroxine], the Elver result is given as “Y” in experiment [1] (individual Exp 5-4, 175 days old, total length 43.5 mm at start of T4 treatment); “Y” in experiment [1] (individual Exp 5-5, 174 days old, total length 36.1 mm at start of T4 treatment); “Y” in experiment [1] (individual Exp. 5-1, 175 days old, total length 38.5 mm at start of T4 treatment); “Y” in experiment [1] (individual Exp. 5-2, 175 days old, total length 41.3 mm at start of T4 treatment); “Y” in experiment [1] (individual Exp. 5-3, 175 days old, total length 41.7 mm at start of T4 treatment); “Y” in experiment [2] (individual Exp 6-2, 129 days old, total length 38.1 mm at start of T4 treatment). Besides, the Elver result in experiment [2] (individual Exp 6-3, 129 days old, total length 37.4 mm at start of T4 treatment) is given as “Y”; in experiment [2] (individual Exp 6-4, 129 days old, total length 36.6 mm at start of T4 treatment), “Y”; in experiment [2] (individual Exp 6-5, 129 days old, total length 36.4 mm at start of T4 treatment), “Ng”; in experiment [2] (individual Exp 6-6, 129 days old, total length 34.6 mm at start of T4 treatment), “Nf”; in experiment [2] (individual Exp. 6-1, 129 days old, total length 40.6 mm at start of T4 treatment), “Y”.
